Assay results: patent US20250195520A1, “COMBINATION THERAPY USING A PTPN11 INHIBITOR AND AN EGFR INHIBITOR” (NAVIRE PHARMA, INC., priority 2021, published 2025)
Entries after “also recorded” stand apart in the source; their conditions may differ.

Tests used:
[1] = tested on: HCC827-ER1 subcutaneous tumors; assay: HCC827-ER1 subcutaneous xenograft, tumor volume; format: in vivo, mouse; conditions: for Number of regressions: regressions/animals remaining
Experimental: (§1) Cell lines. The HCC827 cell line was purchased from ATCC. […] The cells were cultured in RPMI-1640 medium (Sigma #RO883)+10% FBS (Sigma #F7524)+2 mM L-glutamine (Sigma #59202C) in 37° C. tissue culture incubator with 5% CO2.
(§2) Test animals. Female athymic nude mice (Envigo UK, Hsd: Athymic Nude-Foxn1nu) were utilized in this experiment. Animals were between 5 and 6 weeks of age at time of xenograft implantation. Animal welfare complies with the UK Animals Scientific Procedures Act 1986 (ASPA) in line with Directive 2010/63/EU of the European Parliament and the Council of 22 Sep. 2010 on the protection of animals used for scientific purposes. All experimental data management and reporting procedures were in strict accordance with applicable Crown Bioscience UK Guidelines and Standard Operating Procedures.
(§3) In vivo modeling, treatment and data analysis. For xenograft studies with the HCC827 and HCC827-ER1 cells, 5 million cells in 200 μL Matrigel (Corning #354234) were injected subcutaneously into the left flank of 5˜6 weeks old female athymic nude mice (Envigo UK). […] Dosing started ˜3 weeks post the subcutaneous implantation of the tumor cells. Dosing volume was 5 mL/kg for each compound, and was adjusted based on individual mouse weight from the daily measurements. Tumor volume was measured twice a week.
(§4) Data were analyzed using Microsoft Excel and GraphPad Prism 8.0. Day 0 was the day before treatment started. Body weight change was calculated based on the following formulas.

[2] = tested on: MPAS-plus signature (MAPK pathway) in HCC827-ER1 tumors; assay: RNA sequencing (QuantSeq), MPAS-plus signature in HCC827-ER1 xenograft tumors; format: in vivo, mouse; conditions: for effect on MPAS-plus signature: across timepoints
Experimental: (§5) In vivo modeling, treatment and data analysis. […] Dosing started ˜3 weeks after the subcutaneous implantation of the tumor cells. Dosing volume was 5 mL/kg for each compound, and was adjusted based on individual mouse weight. Dosing and sample harvesting followed the schedule below. There was a 6-hour interval between the morning dose and the afternoon dose, and tumor/plasma samples were harvested at three timepoints during the 24-hour dosing cycle.

[3] = tested on: DUSP6 mRNA (MAPK pathway signaling) in HCC4006-OsiR cells; assay: In vitro pharmacodynamic assay, Taqman qRT-PCR of DUSP6 in HCC4006-OsiR cells; format: cell-based, human; conditions: osimertinib 100 nM, formula (10b) 3 μM, 4-hour, 48-hour, 7-day treatment
Experimental: In vitro pharmacodynamic assay—Taqman qRT-PCR assay. The HCC4006-OsiR cells were plated in 6-well plates (Corning #353046) in 2 mL media and allowed to adhere overnight. […] Four hours later, 4-hour samples were harvested by removing media and lysing cells in each well with 350 μL RLT lysis buffer (Qiagen #79216) with 1% 2-mercaptoethanol. Samples were processed either right way or stored at −20° C. until further analysis. On day 3 and day 8, 48-hour samples and 7-day samples were harvested in the same way. Cells harvested at these two timepoints were switched to fresh media containing compounds 24 hours before sample harvesting.
RNA was extracted from lysates using RNeasy mini RNA isolation kit (Qiagen #74106). Isolated RNA was quantified using Nanodrop 8000 (Thermo Fisher). cDNA was synthesized using high capacity cDNA reverse transcription kit (Thermo Fisher #4368813) with 1 μg total RNA per reaction on a BioRad Tetrad2 thermal cycler (25° C. for 10 min, 37° C. for 120 min, 85° C. for 5 min then hold at 4° C.). The cDNA was further diluted 1:10 using ddH2O. Quantitative real-time PCR was conducted using the following Taqman probes and Taqman universal master mix II without UNG (Thermo Fisher #4440040) on QuantStudio 6 in 384-well format (Thermo Fisher), following vendor's protocols. Each well contains a target probe of interest conjugated to FAM dye (DUSP6, Thermo Fisher Assay ID Hs01044001_m1), and an endogenous control conjugated to VIC dye (human RPLPO, Thermo Fisher #4326314E). Each cDNA was run in three technical replicates.
The ΔΔCt method was used to analyze the qRT-PCR data. […] To calculate fold change, the relative mRNA levels of each sample were normalized to that in DMSO treated samples (fold change for DMSO treated samples was set at “1”). Calculations were done in Microsoft Excel and the graphs were generated in GraphPad Prism 8.0.

[4] = tested on: NCI-H1975 (C797S+) tumors; assay: NCI-H1975 (C797S+) tumor model, tumor volume; format: in vivo, mouse
[5] = Plasma exposure by LC-MS/MS in the HCC827 xenograft study; conditions: for Formula (10b) Plasma concentration: 6-8 hours post the final dose of formula (10b) 100 mg/kg QD, mean ± SD
From the text: (§6) Blood collection for pharmacokinetic analysis. Blood from live animals for pharmacokinetic (PK) analyses was obtained via the lateral saphenous vein. The mouse was placed in a restraint tube and the hind leg immobilized in the extended position. Resting the foot of the animal on a solid surface, a sterile 25g needle (BD Microlance 3) was inserted into the saphenous vein on the top of the foot. The needle was removed and the blood collected using an EDTA coated capillary blood tube (Microvette CB 300 K2E) by capillary action to a volume of 100 μL. The tube was inverted several times to distribute the EDTA evenly and then centrifuged at 13,000 rpm, 4° C. (VWR Micro Star 17R) for 5 minutes to generate plasma. The supernatant (plasma) was carefully transferred to a 1.5 mL tube and stored at −80° C.
For each analysis, 25 μL of plasma sample was precipitated with 200 μL of acetonitrile containing imipramine (70 ng/mL) as an internal standard.
(§7) The detection conditions of the mass spectrometer were as follows: capillary voltage, 3 kv; cone voltage, 50 ev; collision energy, 25 ev; source temperature, 150° C.; desolvation temperature, 400° C.; desolvation gas flow, 1000 L/hr; cone gas glow, 0.15 mL/min. […] The injection volume was 5 μL. The LC mobile phase A was 0.1% acetic acidwater and B was 0.1% acetic acid-acetonitrile. […] The column temperature was 40° C. […] All data were processed using the MAssLynx v. 4.0 software.

[6] = tested on: HCC827 subcutaneous tumors; assay: HCC827 subcutaneous xenograft, tumor volume; format: in vivo, mouse
Experimental: as §1, §2, §3, §4

[7] = Body weight in the HCC827-ER1 xenograft study; conditions: Day 15
Experimental: In vivo modeling, treatment and data analysis. […] Dosing started ˜3 weeks post the subcutaneous implantation of the tumor cells. Dosing volume was 5 mL/kg for each compound, and was adjusted based on individual mouse weight from the daily measurements. Tumor volume was measured twice a week.
as §4
BWi and BW0 are the body weight of an individual mouse on measurement day I and on day 0, respectively.

[8] = Plasma concentration by LC-MS/MS in mice bearing HCC827-ER1 tumors (PK/PD study)
Experimental: as §5
as §6, with “μL.” for “μL. The tube was inverted several times to distribute the EDTA evenly and then centrifuged at 13,000 rpm, 4° C. (VWR Micro Star 17R) for 5 minutes to generate plasma. The supernatant (plasma) was carefully transferred to a 1.5 mL tube and stored at −80° C.”
The tube was inverted several times to distribute the EDTA evenly and then centrifuged at 13,000 rpm, 4° C. (VWR Micro Star 17R) for 5 minutes to generate plasma. The supernatant (plasma) was carefully transferred to a 1.5 mL tube and stored at −80° C.
as §7

[9] = HCC827 xenograft, formula (10b) 100 mg/kg QD, osimertinib 5 mg/kg QD, PO, 21 days

For `Cc1c(N2CCC3(CC2)CO[C@@H](C)[C@H]3N)nc(C)n(-c2cccc(Cl)c2Cl)c1=O` (atropisomer, axis not shown; (Ra)) [Formula (10b), 6-((3S,4S)-4-amino-3-methyl-2-oxa-8-azaspiro[4.5]decan-8-yl)-3-(Ra)-(2,3-dichlorophenyl)-2,5-dimethylpyrimidin-4 (3H)-one], the TGI ([1]; Day 15, HCC827-ER1 xenograft, formula (10b) 100 mg/kg QD, osimertinib 5 mg/kg QD) was 84%, the Number of regressions ([1]; Day 15, HCC827-ER1 xenograft) was 0/4 and the “tumor growth (tumor volume)” value ([1]; HCC827-ER1 xenograft, formula (10b) 100 mg/kg QD, osimertinib 5 mg/kg QD, PO, 21 days) was “suppresses the growth of the HCC827-ER1 tumors; also recorded: tumor stasis”. The “mRNA levels of the MPAS-plus genes” value ([2]; 6-hour and 8-hour after formula (10b) administration) was “potently suppressed the mRNA levels of the MPAS-plus genes”, the “effect on MPAS-plus signature” value [2] was “suppresses the MPAS-plus signature” and the “DUSP6 mRNA levels” value [3] was “reduces the transcript levels of MAPK pathway signature gene DUSP6; also recorded: potently suppressed DUSP6 mRNA levels at all three timepoints tested”. The “tumor growth (tumor volume)” value [4] was “suppresses the growth; also recorded: robust tumor regression”, the “Formula (10b) Plasma concentration” value ([5]; HCC827 xenograft model) was 14.1 ± 5.6 µM and the “Formula (10b) Plasma concentration” value ([5]; HCC827 xenograft model, listed as formula (10b)) was 14.1 µM. The “tumor growth (tumor volume)” value [6, 9] was “suppresses the growth of the HCC827 subcutaneous tumors; also recorded: tumor stasis”, the “Mean body weight change” value [7] was “+6.3%” and the Formula (10b) Plasma concentration ([8]; 6 hours and 8 hours after dosing, 100 mg/kg, monotherapy and in combination with osimertinib) was 30 to 50 µM. The “10(b) plasma concentration” value ([8]; 24 hr post (10b) (18 hr post osimertinib), formula (10b) 100 mg/kg PO, mean ± SD) was 1.34 ± 0.24 µM, the concentration at 6 h ([8]; female, athymic nude, mouse, plasma, oral, 100 mg/kg, 10(b) plasma concentration, 6 hr post (10b) (24 hr post osimertinib), formula (10b) 100 mg/kg PO, mean ± SD) was 47400 ± 5200 nM and the concentration at 8 h ([8]; female, athymic nude, mouse, plasma, oral, 100 mg/kg, 10(b) plasma concentration, 8 hr post (10b) (2 hr post osimertinib), formula (10b) 100 mg/kg PO, mean ± SD) was 35800 ± 9100 nM. For the same compound, the concentration at 24 h ([8]; female, athymic nude, mouse, plasma, oral, 100 mg/kg, 10(b) plasma concentration, 24 hr post (10b) (18 hr post osimertinib), formula (10b) 100 mg/kg PO, mean ± SD) was ~1000 nM.
In the case of `C=CC(=O)Nc1cc(Nc2nccc(-c3cn(C)c4ccccc34)n2)c(OC)cc1N(C)CCN(C)C` [Osimertinib], the Number of regressions ([1]; Day 15, HCC827-ER1 xenograft) is reported as 0/4, the TGI ([1]; mouse, in vivo) is reported as 64% and the “tumor growth (tumor volume)” value ([1]; mouse, in vivo) is reported as “continued to grow during the treatment period”. The “effect on MPAS-plus signature” value [2] was “little effect on the MPAS-plus signature”, the “DUSP6 mRNA levels” value [3] was “did not suppress DUSP6 mRNA levels” and the “osimertinib plasma concentration” value ([5]; 24 hours post the final dose of osimertinib 5 mg/kg QD, HCC827 xenograft model, quantitation limit 2 nM) was “BQL”. The concentration at 24 h ([5]; athymic nude, mouse, in vivo, 5 mg/kg) was < 2 nM, the “tumor growth (tumor volume)” value [6, 9] was “tumor stasis” and the “tumor growth (tumor volume)” value ([6]; mouse, in vivo) was “robust tumor regression”. The “Mean body weight change” value [7] was “+1.0%”, the osimertinib plasma concentration ([8]; 2 hr post osimertinib (8 hr post (10b)), osimertinib 5 mg/kg PO, mean ± SD) was 681 ± 277 nM and the osimertinib plasma concentration ([8]; 18 hr post osimertinib (24 hr post (10b)), osimertinib 5 mg/kg PO, mean ± SD) was “low nanomolar range”. The osimertinib plasma concentration ([8]; 24 hr post osimertinib (6 hr post (10b)), osimertinib 5 mg/kg PO, quantitation limit 2 nM) was “BQL”, the concentration at 2 h ([8]; female, athymic nude, mouse, in vivo, 5 mg/kg, osimertinib plasma concentration, 2 hr post osimertinib (8 hr post (10b)), osimertinib 5 mg/kg PO, mean ± SD) was ~700 nM and the concentration at 18 h ([8]; female, athymic nude, mouse, in vivo, 5 mg/kg, osimertinib plasma concentration, 18 hr post osimertinib (24 hr post (10b)), osimertinib 5 mg/kg PO, mean ± SD) was 2.1 ± 0.14 nM. For the same compound, the concentration at 24 h ([8]; female, athymic nude, mouse, in vivo, 5 mg/kg, osimertinib plasma concentration, 24 hr post osimertinib (6 hr post (10b)), osimertinib 5 mg/kg PO, quantitation limit 2 nM) was < 2 nM.
